Data: publication PMC11859309, “Design, Synthesis, and Computational Evaluation of 3,4-Dihydroquinolin-2(1H)-One Analogues as Potential VEGFR2 Inhibitors in Glioblastoma Multiforme” (Pharmaceuticals, 2025)

Key:
[1] = PAMPA, GI-mimicking membrane; format: in vitro ADME; details: class relative to high and low permeability controls
Procedure: (§1) The permeability of the synthesised compounds was evaluated using the parallel artificial membrane permeability assay (PAMPA) to estimate their ability to cross biological membrane mimics of both the gastrointestinal (GI) membrane and the blood–brain barrier (BBB).
(§2) The PAMPA assay (BioAssay System, Hayward, CA 94545, USA) has been used for testing the permeability rates of drugs through the BBB-mimicking membrane. […] The permeability assay was performed for 18 h in a 37 °C incubator.

[2] = test system: U138-MG glioblastoma cell line; experiment: MTT cell proliferation assay, U138-MG; format: cell-based; details: for activity at 10 µM / inhibition at 10 µM / IC50: Homo sapiens; for activity at 10 µM: compound 10 μM, 48 h, read-out: Cell Proliferation ± Std dev. (%) U138; for activity at 10 µM / IC50: MTT; for inhibition at 10 µM: read-out: cell inhibition percentage (activity); for IC50: 0–160 μM
Procedure: (§3) U87-MG (HTB-16) and U138-MG (HTB-14) lines were purchased from ATCC. The cells were cultured in DMEM-HG Medium (41966-029, Gibco, Grand Island, NE, USA) and supplemented with 10% fetal bovine serum (FBS, 10500-064, Gibco) and 1% Penicillin–Streptomycin (P/S, 15140-122, Gibco). After 24 h of seeding cells, all compounds dissolved in 0.4% dimethyl sulfoxide (DMSO, A3672-0250, AppliChem, Darmstadt, Germany) were treated in the cells.
The proliferation effects of the drug candidates on the U87-MG and U138-MG cell lines were tested using the MTT (3-(4,5-dimethylthiazol-2-yl)-2,5-diphenyltetrazolium bromide) assay. A total of 7 × 10^3 cells per well of both U87-MG and U138-MG cells were seeded into a 96-well plate in triplicate for the assay. […] After the incubation period, 10 μL of MTT solution (5 mg/mL in PBS) was added to each well. The MTT solution was aspirated from the wells after 2 h. Then, 100 μL of DMSO was added and mixed to dissolve the formazan crystals. Cell proliferation was analysed by measuring the absorbance of the dissolved formazan at a wavelength of 570 nm using a microplate reader (Epoch, San Jose, CA, USA). […] Each experiment was carried out in triplicate to ensure reliability and statistical significance.

[3] = test system: U87-MG glioblastoma cell line; experiment: MTT cell proliferation assay, U87-MG; format: cell-based; details: for activity at 10 µM: compound 10 μM, 48 h, read-out: Cell Proliferation ± Std dev. (%) U87; for IC50: 0–160 μM
Procedure: as §3
The proliferation effects of the drug candidates on the U87-MG and U138-MG cell lines were tested using the MTT (3-(4,5-dimethylthiazol-2-yl)-2,5-diphenyltetrazolium bromide) assay. A total of 7 × 10^3 cells per well of both U87-MG and U138-MG cells were seeded into a 96-well plate in triplicate for the assay. After 24 h, each compound was added at a dose of 10 μM and incubated for 48 h. After the incubation period, 10 μL of MTT solution (5 mg/mL in PBS) was added to each well. The MTT solution was aspirated from the wells after 2 h. Then, 100 μL of DMSO was added and mixed to dissolve the formazan crystals. Cell proliferation was analysed by measuring the absorbance of the dissolved formazan at a wavelength of 570 nm using a microplate reader (Epoch, San Jose, CA, USA). […] Each experiment was carried out in triplicate to ensure reliability and statistical significance.

[4] = PAMPA, BBB-mimicking membrane; format: in vitro ADME; details: 500 μM, 18 h, 37 °C
Procedure: as §1, §2

[5] = equals 100 minus cell proliferation of Table 1 (10 μM, 48 h)

SMILES: O=C(COc1ccc2c(c1)CCC(=O)N2)NN=Cc1cccs1 [4d, 2-((2-Oxo-1,2,3,4-Tetrahydroquinolin-6-Yl)Oxy)-N′-(Thiophen-2-Ylmethylene)Acetohydrazide]
- Permeability through GI-mimicking membrane (class in words) [1]: high permeability

SMILES: O=C(COc1ccc2c(c1)CCC(=O)N2)N/N=C/c1ccc(-c2ccc(Cl)cc2)cc1 [4w, (E)-N′-((4′-Chloro-[1,1′-Biphenyl]-4-Yl)Methylene)-2-((2-Oxo-1,2,3,4-Tetrahydroquinolin-6-Yl)Oxy)Acetohydrazide]
- activity at 10 µM [2]: 80 ± 6.9%
- inhibition at 10 µM [2, 5]: 20%
- activity at 10 µM ([3]; Homo sapiens, U-87 MG): 63 ± 2.5%

SMILES: CCCc1ccc(/C=N/NC(=O)COc2ccc3c(c2)CCC(=O)N3)cc1 [4h, (E)-2-((2-Oxo-1,2,3,4-Tetrahydroquinolin-6-Yl)Oxy)-N′-(4-Propylbenzylidene)Acetohydrazide]
- activity at 10 µM [2]: 100 ± 2.3%
- inhibition at 10 µM [2, 5]: 0%
- Permeability through BBB-mimicking membrane (class in words) [4]: high permeability

SMILES: O=C(COc1ccc2c(c1)CCC(=O)N2)N/N=C/c1ccccc1 [4j, (E)-N′-Benzylidene-2-((2-Oxo-1,2,3,4-Tetrahydroquinolin-6-Yl)Oxy)Acetohydrazide]
- Permeability through BBB-mimicking membrane (class in words) [4]: high permeability

SMILES: O=C(COc1ccc2c(c1)CCC(=O)N2)N/N=C1\C(=O)Nc2ccc(F)cc21 [4m, (Z)-N′-(5-Fluoro-2-Oxoindolin-3-Ylidene)-2-((2-Oxo-1,2,3,4-Tetrahydroquinolin-6-Yl)Oxy)Acetohydrazide]
- IC50 [2]: 4.2 µM

SMILES: Cn1nnc2c(C(N)=O)ncn2c1=O [TMZ, temozolomide, reference compound]
- IC50 [2]: 93.1 µM
- activity at 10 µM [2]: 78 ± 5%
- IC50 ([3]; Homo sapiens, U-87 MG): 92.9 µM
- activity at 10 µM ([3]; Homo sapiens, U-87 MG): 80 ± 5%
- Permeability through GI-mimicking membrane (class in words) [1]: lower permeability
- Permeability through BBB-mimicking membrane (class in words) [4]: lower permeability

SMILES: O=C(COc1ccc2c(c1)CCC(=O)N2)N/N=C/c1cnc(-c2ccc(Cl)cc2)nc1 [4q, (E)-N′-((2-(4-Chlorophenyl)Pyrimidin-5-Yl)Methylene)-2-((2-Oxo-1,2,3,4-Tetrahydroquinolin-6-Yl)Oxy)Acetohydrazide]
- IC50 [2]: 8 µM
- activity at 10 µM [2]: 39 ± 3%
- inhibition at 10 µM [2, 5]: 61%
- activity at 10 µM ([3]; Homo sapiens, U-87 MG): 67 ± 4.9%

SMILES: O=C(COc1ccc2c(c1)CCC(=O)N2)N/N=C/c1ccc(Cl)cc1 [4b, (E)-N′-(4-Chlorobenzylidene)-2-((2-Oxo-1,2,3,4-Tetrahydroquinolin-6-Yl) Oxy) Acetohydrazide]
- inhibition at 10 µM [2, 5]: 40%

SMILES: O=C(COc1ccc2c(c1)CCC(=O)N2)N/N=C/c1cccc2ccccc12 [4u, (E)-N′-(Naphthalen-1-Ylmethylene)-2-((2-Oxo-1,2,3,4-Tetrahydroquinolin-6-Yl)Oxy)Acetohydrazide]
- IC50 ([3]; Homo sapiens, U-87 MG): 7.96 µM

SMILES: O=C(COc1ccc2c(c1)CCC(=O)N2)N/N=C/c1ccc(-c2ccccc2)cc1 [4v, (E)-N′-([1,1′-Biphenyl]-4-Ylmethylene)-2-((2-Oxo-1,2,3,4-Tetrahydroquinolin-6-Yl)Oxy)Acetohydrazide]
- IC50 ([3]; Homo sapiens, U-87 MG): 11.7 µM

SMILES: Cc1[nH]c2ccccc2c1/C=N/NC(=O)COc1ccc2c(c1)CCC(=O)N2 [4g, (E)-N′-((2-Methyl-1H-Indol-3-Yl)Methylene)-2-((2-Oxo-1,2,3,4-Tetrahydroquinolin-6-Yl)Oxy)Acetohydrazide]
- IC50 [2]: 9.2 µM

SMILES: O=C(COc1ccc2c(c1)CCC(=O)N2)N/N=C1\C(=O)Nc2ccc([N+](=O)[O-])cc21 [4o, (Z)-N′-(5-Nitro-2-Oxoindolin-3-Ylidene)-2-((2-Oxo-1,2,3,4-Tetrahydroquinolin-6-Yl)Oxy)Acetohydrazide]
- cell inhibition percentage (activity) [2, 5]: moderate activity

SMILES: O=C(COc1ccc2c(c1)CCC(=O)N2)N/N=C/c1ccc(F)cc1 [4s, (E)-N′-(4-Fluorobenzylidene)-2-((2-Oxo-1,2,3,4-Tetrahydroquinolin-6-Yl)Oxy)Acetohydrazide]
- Permeability through GI-mimicking membrane (class in words) [1]: high permeability

SMILES: O=C(COc1ccc2c(c1)CCC(=O)N2)N/N=C/c1cccc(Oc2ccc(Cl)cc2)c1 [4t, (E)-N′-(3-(4-Chlorophenoxy)Benzylidene)-2-((2-Oxo-1,2,3,4-Tetrahydroquinolin-6-Yl)Oxy)Acetohydrazide]
- activity at 10 µM [2]: 65 ± 3.5%
- IC50 [3]: 10.5 µM
- IC50 ([3]; Homo sapiens, U-87 MG): 10.7 µM
- activity at 10 µM ([3]; Homo sapiens, U-87 MG): 50 ± 3.2%
- Permeability through BBB-mimicking membrane (class in words) [4]: high permeability

SMILES: CN1C(=O)/C(=N\NC(=O)COc2ccc3c(c2)CCC(=O)N3)c2cc(F)ccc21 [4l, (Z)-N′-(5-Fluoro-1-Methyl-2-Oxoindolin-3-Ylidene)-2-((2-Oxo-1,2,3,4-Tetrahydroquinolin-6-Yl)Oxy)Acetohydrazide]
- activity at 10 µM [2]: 73 ± 3.6%
